Results from patent publication US9573911B2, “Diphosphate mimetics and uses thereof” (President and Fellows of Harvard College, priority 2011, dated 2017).
Like-named read-outs stand apart in the source and are kept apart here.

How the values were obtained:
Type in all cases: biochemical
SGK (SGK1) = target: T1, SGK (SGK1) (Homo sapiens, UniProt O00141); test: Further kinase screen, Invitrogen Z'-LYTE; settings: Table 3
T1 construct: purchased Invitrogen
T1 sequence (O00141 1-431): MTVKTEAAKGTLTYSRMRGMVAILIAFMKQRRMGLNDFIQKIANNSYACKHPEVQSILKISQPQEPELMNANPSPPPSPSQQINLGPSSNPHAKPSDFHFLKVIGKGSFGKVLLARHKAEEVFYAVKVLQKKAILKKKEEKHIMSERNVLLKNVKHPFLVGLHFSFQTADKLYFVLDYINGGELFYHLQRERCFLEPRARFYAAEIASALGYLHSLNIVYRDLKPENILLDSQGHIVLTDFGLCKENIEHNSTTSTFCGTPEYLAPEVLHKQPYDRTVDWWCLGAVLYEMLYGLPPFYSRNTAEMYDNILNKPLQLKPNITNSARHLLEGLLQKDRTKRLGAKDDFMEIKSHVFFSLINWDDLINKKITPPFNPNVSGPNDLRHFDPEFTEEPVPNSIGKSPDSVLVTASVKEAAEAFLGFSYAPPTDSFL
Method: (§1) Kinase profiling was conducted using Invitrogen Z'-LYTE screening protocol and assay conditions found at www.invitrogen.com. Compound (2) inhibited PLK1 completely at 5 μM.
(§2) A further kinase screen was performed on Compounds (2), (4A), and (4B) using the assay described above.

SRPK1 = target: T2, SRPK1 (Homo sapiens, UniProt Q96SB4); test: Further kinase screen, Invitrogen Z'-LYTE; settings: Table 3
T2 construct: purchased Invitrogen
Method: as §1, §2

CDK2/cyclin A = target: T3, CDK2/cyclin A (Homo sapiens, UniProt P24941); test: Further kinase screen, Invitrogen Z'-LYTE; settings: Table 3
T3 construct: purchased Invitrogen
Method: as §1, §2

TYK2 = target: T4, TYK2 (Homo sapiens, UniProt P29597); test: Further kinase screen, Invitrogen Z'-LYTE; settings: Table 3
T4 construct: purchased Invitrogen
Method: as §1, §2

GRK6 = target: T5, GRK6 (Homo sapiens, UniProt P43250); test: Further kinase screen, Invitrogen Z'-LYTE; settings: Table 3
T5 construct: purchased Invitrogen
Method: as §1, §2

GSK3B (GSK3 beta) = target: T6, GSK3B (GSK3 beta) (Homo sapiens, UniProt P49841); test: Further kinase screen, Invitrogen Z'-LYTE; settings: Table 3
T6 construct: purchased Invitrogen
Method: as §1, §2

CAMK4 (CaMKIV) = target: T7, CAMK4 (CaMKIV) (Homo sapiens, UniProt Q16566); test: Further kinase screen, Invitrogen Z'-LYTE; settings: Table 3
T7 construct: purchased Invitrogen
Method: as §1, §2

ADRBK1 (GRK2) = target: T8, ADRBK1 (GRK2) (Homo sapiens, UniProt P25098); test: Kinase profiling, Invitrogen Z'-LYTE
T8 construct: purchased Invitrogen
T8 sequence (P25098 1-689): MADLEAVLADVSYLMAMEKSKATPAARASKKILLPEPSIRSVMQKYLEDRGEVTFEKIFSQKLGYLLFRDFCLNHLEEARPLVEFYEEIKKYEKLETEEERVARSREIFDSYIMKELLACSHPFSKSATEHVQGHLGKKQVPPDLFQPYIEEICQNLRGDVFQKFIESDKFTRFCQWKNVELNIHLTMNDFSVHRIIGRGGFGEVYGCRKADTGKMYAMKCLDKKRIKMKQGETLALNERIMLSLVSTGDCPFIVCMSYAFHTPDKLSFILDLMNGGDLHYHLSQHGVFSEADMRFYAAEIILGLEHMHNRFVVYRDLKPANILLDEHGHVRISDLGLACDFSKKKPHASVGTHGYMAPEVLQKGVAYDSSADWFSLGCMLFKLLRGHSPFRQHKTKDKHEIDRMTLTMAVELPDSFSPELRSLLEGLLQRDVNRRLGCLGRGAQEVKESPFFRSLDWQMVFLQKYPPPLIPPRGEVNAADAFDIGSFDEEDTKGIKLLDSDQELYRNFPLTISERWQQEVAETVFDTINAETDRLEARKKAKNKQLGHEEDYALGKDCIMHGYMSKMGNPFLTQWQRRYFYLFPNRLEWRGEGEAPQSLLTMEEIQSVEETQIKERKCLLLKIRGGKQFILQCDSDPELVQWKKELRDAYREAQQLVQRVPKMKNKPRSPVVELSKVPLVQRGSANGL
Method: as §1, §2

PLK1 = target: T9, PLK1 (Homo sapiens, UniProt P53350); test: Kinase profiling, Invitrogen Z'-LYTE; settings: for inhibition at 5 µM / % Inhibition Point 1 / % Inhibition Point 2 / % Inhibition mean: PLK1; for inhibition at 5 µM: Table 2; for % Inhibition Point 1 / % Inhibition Point 2 / % Inhibition mean: Table 3 further screen
T9 construct: purchased Invitrogen
Method: as §1, §2

OGT = target: T10, OGT (Homo sapiens, UniProt O15294); test: IC50 assay, OGT peptide-capture assay
T10 construct: hOGT4.5 construct (spanning residues 313-1031 based on the numbering of the full length human protein); made in house
T10 sequence (O15294 313-1031 isoform O15294-3): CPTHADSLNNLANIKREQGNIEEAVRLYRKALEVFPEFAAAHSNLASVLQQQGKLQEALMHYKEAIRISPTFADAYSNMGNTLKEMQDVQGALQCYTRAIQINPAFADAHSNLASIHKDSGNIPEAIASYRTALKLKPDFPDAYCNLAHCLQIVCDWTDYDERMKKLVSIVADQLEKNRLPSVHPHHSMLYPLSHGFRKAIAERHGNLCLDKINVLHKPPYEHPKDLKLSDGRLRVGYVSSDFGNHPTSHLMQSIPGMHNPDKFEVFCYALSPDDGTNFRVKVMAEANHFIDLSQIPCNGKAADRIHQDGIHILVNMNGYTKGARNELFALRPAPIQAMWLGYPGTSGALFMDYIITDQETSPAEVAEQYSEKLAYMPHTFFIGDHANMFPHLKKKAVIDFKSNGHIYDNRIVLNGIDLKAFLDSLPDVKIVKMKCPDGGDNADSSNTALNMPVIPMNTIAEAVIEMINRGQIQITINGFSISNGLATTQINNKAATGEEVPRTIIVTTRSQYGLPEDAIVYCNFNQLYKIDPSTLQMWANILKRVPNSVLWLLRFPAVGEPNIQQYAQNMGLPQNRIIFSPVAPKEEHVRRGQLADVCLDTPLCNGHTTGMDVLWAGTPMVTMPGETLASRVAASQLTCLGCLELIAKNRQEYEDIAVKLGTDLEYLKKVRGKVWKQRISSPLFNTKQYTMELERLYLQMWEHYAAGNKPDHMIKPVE
Method: IC50 Assay of Thiocarbamate to OGT.
Enzyme activity was tested with the peptide-capture assay in the presence of different concentrations of each compound as previously reported (J. Am. Chem. Soc. 2005, 127, 14588-14589).

[1] = peptide-capture assay, different concentrations of each compound, read-out: IC50 Values

T4 sequence (P29597 whole entry): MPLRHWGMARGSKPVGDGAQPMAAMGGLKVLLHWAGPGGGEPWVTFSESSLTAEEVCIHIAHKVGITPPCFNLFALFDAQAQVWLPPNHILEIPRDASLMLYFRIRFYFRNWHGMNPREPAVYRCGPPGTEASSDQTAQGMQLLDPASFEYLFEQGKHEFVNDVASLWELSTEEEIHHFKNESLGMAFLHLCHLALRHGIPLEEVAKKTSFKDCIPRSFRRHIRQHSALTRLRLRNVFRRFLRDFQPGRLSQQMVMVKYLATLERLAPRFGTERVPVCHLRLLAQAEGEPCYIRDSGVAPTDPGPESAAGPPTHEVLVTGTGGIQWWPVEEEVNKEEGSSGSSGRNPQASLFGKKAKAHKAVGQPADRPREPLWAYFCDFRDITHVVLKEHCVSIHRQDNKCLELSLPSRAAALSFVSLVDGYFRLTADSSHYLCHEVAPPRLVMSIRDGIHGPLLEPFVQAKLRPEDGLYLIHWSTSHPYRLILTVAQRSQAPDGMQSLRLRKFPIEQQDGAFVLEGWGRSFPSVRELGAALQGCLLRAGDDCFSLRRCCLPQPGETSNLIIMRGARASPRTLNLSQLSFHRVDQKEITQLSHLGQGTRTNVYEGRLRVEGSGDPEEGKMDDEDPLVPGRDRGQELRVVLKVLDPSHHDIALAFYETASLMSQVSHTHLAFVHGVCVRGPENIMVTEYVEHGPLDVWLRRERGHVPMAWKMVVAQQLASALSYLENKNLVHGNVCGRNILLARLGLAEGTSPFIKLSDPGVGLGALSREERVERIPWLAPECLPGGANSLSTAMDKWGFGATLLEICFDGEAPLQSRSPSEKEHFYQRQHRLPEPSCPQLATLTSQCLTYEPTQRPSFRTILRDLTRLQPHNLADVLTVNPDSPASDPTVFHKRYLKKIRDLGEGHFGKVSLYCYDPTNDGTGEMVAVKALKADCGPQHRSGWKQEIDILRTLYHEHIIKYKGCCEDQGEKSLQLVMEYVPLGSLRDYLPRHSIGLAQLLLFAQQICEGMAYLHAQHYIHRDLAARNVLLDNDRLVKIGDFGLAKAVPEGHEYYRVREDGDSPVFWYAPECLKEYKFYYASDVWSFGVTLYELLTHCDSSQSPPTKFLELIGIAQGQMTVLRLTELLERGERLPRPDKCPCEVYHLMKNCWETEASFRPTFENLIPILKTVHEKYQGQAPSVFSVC
T6 sequence (P49841 whole entry): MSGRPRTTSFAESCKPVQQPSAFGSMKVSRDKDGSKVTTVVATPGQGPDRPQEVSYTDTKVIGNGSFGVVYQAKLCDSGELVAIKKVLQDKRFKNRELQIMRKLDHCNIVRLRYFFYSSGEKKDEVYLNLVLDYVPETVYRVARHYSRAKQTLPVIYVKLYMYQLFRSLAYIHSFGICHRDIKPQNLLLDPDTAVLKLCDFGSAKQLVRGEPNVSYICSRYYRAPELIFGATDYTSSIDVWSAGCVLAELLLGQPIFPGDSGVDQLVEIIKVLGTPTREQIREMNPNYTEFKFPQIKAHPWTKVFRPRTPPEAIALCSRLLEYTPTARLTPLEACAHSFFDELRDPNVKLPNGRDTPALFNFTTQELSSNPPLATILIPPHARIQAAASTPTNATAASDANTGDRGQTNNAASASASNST
T9 sequence (P53350 whole entry): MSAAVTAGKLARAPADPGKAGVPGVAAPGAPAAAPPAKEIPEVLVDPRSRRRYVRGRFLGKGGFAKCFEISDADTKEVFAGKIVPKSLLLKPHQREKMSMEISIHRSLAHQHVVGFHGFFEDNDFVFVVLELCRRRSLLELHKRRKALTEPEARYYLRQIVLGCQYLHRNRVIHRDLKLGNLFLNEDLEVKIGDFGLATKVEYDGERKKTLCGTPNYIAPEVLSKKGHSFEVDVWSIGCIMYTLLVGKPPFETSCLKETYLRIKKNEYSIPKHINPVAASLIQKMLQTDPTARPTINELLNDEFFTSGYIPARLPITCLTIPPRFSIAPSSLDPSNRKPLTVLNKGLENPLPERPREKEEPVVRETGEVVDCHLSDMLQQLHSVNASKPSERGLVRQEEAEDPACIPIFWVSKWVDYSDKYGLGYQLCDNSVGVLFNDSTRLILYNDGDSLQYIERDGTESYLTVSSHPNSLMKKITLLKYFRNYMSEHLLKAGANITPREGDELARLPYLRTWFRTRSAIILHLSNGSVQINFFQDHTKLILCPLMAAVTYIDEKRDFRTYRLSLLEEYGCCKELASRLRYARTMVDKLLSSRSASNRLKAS
T5 sequence (P43250 whole entry): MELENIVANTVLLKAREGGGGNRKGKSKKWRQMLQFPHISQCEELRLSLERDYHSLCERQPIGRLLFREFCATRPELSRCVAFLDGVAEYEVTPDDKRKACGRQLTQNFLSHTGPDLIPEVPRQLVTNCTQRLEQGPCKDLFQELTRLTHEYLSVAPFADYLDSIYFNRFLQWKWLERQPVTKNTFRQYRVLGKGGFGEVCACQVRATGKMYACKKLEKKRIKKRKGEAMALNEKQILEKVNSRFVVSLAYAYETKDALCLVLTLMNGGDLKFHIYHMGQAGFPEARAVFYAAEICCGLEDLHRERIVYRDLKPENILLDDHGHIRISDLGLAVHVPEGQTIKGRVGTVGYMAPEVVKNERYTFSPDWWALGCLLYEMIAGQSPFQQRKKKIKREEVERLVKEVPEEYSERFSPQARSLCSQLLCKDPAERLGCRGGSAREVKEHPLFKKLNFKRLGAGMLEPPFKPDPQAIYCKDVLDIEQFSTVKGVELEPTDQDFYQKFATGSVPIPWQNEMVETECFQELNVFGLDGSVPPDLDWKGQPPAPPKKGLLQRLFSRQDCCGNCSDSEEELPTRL
T2 sequence (Q96SB4 whole entry): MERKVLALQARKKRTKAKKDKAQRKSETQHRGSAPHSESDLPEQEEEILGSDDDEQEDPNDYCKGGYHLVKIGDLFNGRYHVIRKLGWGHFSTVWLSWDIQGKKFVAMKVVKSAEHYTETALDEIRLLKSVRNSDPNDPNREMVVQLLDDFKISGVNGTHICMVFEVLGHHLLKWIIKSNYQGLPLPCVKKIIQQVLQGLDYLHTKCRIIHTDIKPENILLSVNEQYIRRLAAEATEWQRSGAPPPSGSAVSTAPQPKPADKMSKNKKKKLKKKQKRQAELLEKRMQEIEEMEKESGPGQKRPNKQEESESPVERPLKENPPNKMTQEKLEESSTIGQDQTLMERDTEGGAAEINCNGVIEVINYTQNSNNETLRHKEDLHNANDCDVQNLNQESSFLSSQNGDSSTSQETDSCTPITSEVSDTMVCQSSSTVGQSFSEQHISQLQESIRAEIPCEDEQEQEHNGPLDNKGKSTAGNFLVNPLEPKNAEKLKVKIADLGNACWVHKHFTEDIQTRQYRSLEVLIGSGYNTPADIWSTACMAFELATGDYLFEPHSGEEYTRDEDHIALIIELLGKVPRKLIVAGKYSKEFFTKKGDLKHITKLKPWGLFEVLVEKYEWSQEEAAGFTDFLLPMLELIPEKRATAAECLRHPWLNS

Compound	% Inhibition Point 1 (SGK (SGK1)) [%]	% Inhibition Point 2 (SGK (SGK1)) [%]	% Inhibition mean (SGK (SGK1)) [%]	% Inhibition Point 1 (SRPK1) [%]	% Inhibition Point 2 (SRPK1) [%]	% Inhibition mean (SRPK1) [%]	% Inhibition Point 1 (CDK2/cyclin A) [%]	% Inhibition Point 2 (CDK2/cyclin A) [%]	% Inhibition mean (CDK2/cyclin A) [%]	% Inhibition Point 1 (TYK2) [%]	% Inhibition Point 2 (TYK2) [%]	% Inhibition mean (TYK2) [%]	% Inhibition Point 1 (GRK6) [%]	% Inhibition Point 2 (GRK6) [%]	% Inhibition mean (GRK6) [%]	% Inhibition Point 1 (GSK3B (GSK3 beta)) [%]	% Inhibition Point 2 (GSK3B (GSK3 beta)) [%]	% Inhibition mean (GSK3B (GSK3 beta)) [%]	% Inhibition Point 1 (CAMK4 (CaMKIV)) [%]	% Inhibition Point 2 (CAMK4 (CaMKIV)) [%]	other results
COc1ccc(OC(=O)n2c(=O)oc3cc(C(C)=O)ccc32)cc1 [Compound 2]	−234	−237	−236	−49	−38	−44	−297	−301	−299	−98	−99	−99	14	17	16	−7	0	−4	−159	−201	% Inhibition mean (CAMK4 (CaMKIV)): −180%; % Inhibition Point 1 (ADRBK1 (GRK2); Table 2): 2%; % Inhibition Point 2 (ADRBK1 (GRK2); Table 2): 5%; % Inhibition mean (ADRBK1 (GRK2); Table 2): 4%; % Inhibition Point 1 (ADRBK1 (GRK2); Table 3 further screen): 4%; % Inhibition Point 2 (ADRBK1 (GRK2); Table 3 further screen): 7%; % Inhibition mean (ADRBK1 (GRK2); Table 3 further screen): 5%; PLK1 inhibition (PLK1; 5 μM): completely; inhibition at 5 µM (PLK1; 5 μM, read-out: % Inhibition Point 1): 104%; inhibition at 5 µM (PLK1; 5 μM, read-out: % Inhibition Point 2): 104%; inhibition at 5 µM (PLK1; 5 μM, read-out: % Inhibition mean): 104%; % Inhibition Point 1 (PLK1): 101%; % Inhibition Point 2 (PLK1): 101%; % Inhibition mean (PLK1): 101%; IC50 (OGT; [1]): 2 µM; IC50 (OGT; read-out: apparent IC50): 1.6 ± 1.1 µM
COc1ccc(OC(=S)n2c(=O)oc3cc(C(C)=O)ccc32)cc1 [Compound 4A]	76	75	76	−6	2	−2	9	9	9	7	11	9	42	43	42	61	60	60	18	24	% Inhibition mean (CAMK4 (CaMKIV)): 21%; % Inhibition Point 1 (ADRBK1 (GRK2); Table 3 further screen): 3%; % Inhibition Point 2 (ADRBK1 (GRK2); Table 3 further screen): 7%; % Inhibition mean (ADRBK1 (GRK2); Table 3 further screen): 5%; % Inhibition Point 1 (PLK1): 70%; % Inhibition Point 2 (PLK1): 65%; % Inhibition mean (PLK1): 68%; IC50 (OGT; [1]): 14 µM
COc1ccc(OC(=O)n2c(=S)oc3cc(C(C)=O)ccc32)cc1 [Compound 4B]	72	73	73	0	2	1	−2	4	1	17	21	19	71	71	71	92	93	93	52	46	% Inhibition mean (CAMK4 (CaMKIV)): 49%; % Inhibition Point 1 (ADRBK1 (GRK2); Table 3 further screen): 7%; % Inhibition Point 2 (ADRBK1 (GRK2); Table 3 further screen): 6%; % Inhibition mean (ADRBK1 (GRK2); Table 3 further screen): 7%; % Inhibition Point 1 (PLK1): 98%; % Inhibition Point 2 (PLK1): 101%; % Inhibition mean (PLK1): 100%; IC50 (OGT; [1]): ~100 µM
